Reference: US6355435B1, “Methods for detecting and enumerating Campylobacter jejuni in environmental samples and for identifying antibiotic-resistant strains” (priority 1999, dated 2002)

Columns and labels:
[1] = test system: ciprofloxacin-resistant Campylobacter jejuni mutants (C to T transition in codon 86 of gyrA); assay: Growth of selected mutants on BASB medium containing ciprofloxacin; format: cell-based; details: ciprofloxacin at 16 μg/ml; 12 Campylobacter mutants
[2] = test system: Campylobacter jejuni with high-level ciprofloxacin resistance; details: gyrA codon 86 C to T transition; cited from earlier work
[3] = test system: Campylobacter jejuni strain cj49349; assay: Growth on BASB agar supplemented with ciprofloxacin; format: cell-based; details: ciprofloxacin at 16 μg per ml; wild-type strain cj49349

## O=C(O)c1cn(C2CC2)c2cc(N3CCNCC3)c(F)cc2c1=O [ciprofloxacin]
[1]
  growth on BASB medium containing ciprofloxacin: able to grow
[2]
  MIC: ≥ 16 µg/mL
[3]
  growth on BASB agar supplemented with ciprofloxacin: unable to grow
